This is an account of results in patent publication US20250248402A1, “HERBICIDAL COMPOSITIONS AND METHODS FOR CONTROLLING WEEDS” (UPL Mauritius Limited, priority 2024, published 2025).

In the assay the test system is common waterhemp, Sensitive "WUS" Population. The assay is described as follows: Greenhouse dose-response, effective dose on atrazine-sensitive waterhemp. Type of assay: in vivo, Amaranthus tuberculatus. Conditions: 13 days after treatment, visual scale 0-100.

Regarding `CCNc1nc(Cl)nc(NC(C)C)n1` [Atrazine (480 g/L FL), Atrazine], the “ED 20 Estimate” value is on record as 11.127 g ai/ha and the “ED 80 Estimate” value was 39.353 g ai/ha.
